Results as given in the supplement of paper PMC10307832.

Tests used:
Assay in all cases: relative viability (nuclei count vs DMSO), 5 days (fraction); higher = more cells survive
Ponatinib + Pictilisib = compound: Cc1ccc(C(=O)Nc2ccc(CN3CCN(C)CC3)c(C(F)(F)F)c2)cc1C#Cc1cnc2cccnn12 [Ponatinib] + CS(=O)(=O)N1CCN(Cc2cc3nc(-c4cccc5[nH]ncc45)nc(N4CCOCC4)c3s2)CC1 [Pictilisib] (partner 1 µM)
In short: (§1)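 Lung cancer cell lines, seeded in 1536-well plates, were treated the following day by pin tool with a single drug or with five library-drug doses (not always all listed) in √10 steps on top of a fixed anchor-drug dose. Cells were fixed and nuclei stained in one step after 5 days, and nuclei were counted. Relative viability is the nuclei count for treated wells divided by that for vehicle wells, reported as medians of duplicate plates.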

Pazopanib + AZD7762 = compound: Cc1ccc(Nc2nccc(N(C)c3ccc4c(C)n(C)nc4c3)n2)cc1S(N)(=O)=O [Pazopanib] + NC(=O)Nc1cc(-c2cccc(F)c2)sc1C(=O)N[C@H]1CCCNC1 [AZD7762] (partner 0.2 µM)
In short: as §1

Pazopanib + Trametinib = compound: Cc1ccc(Nc2nccc(N(C)c3ccc4c(C)n(C)nc4c3)n2)cc1S(N)(=O)=O [Pazopanib] + CC(=O)Nc1cccc(-n2c(=O)n(C3CC3)c(=O)c3c(Nc4ccc(I)cc4F)n(C)c(=O)c(C)c32)c1 [Trametinib] (partner 0.02 µM)
In short: as §1

Ponatinib + Decitabine = compound: Cc1ccc(C(=O)Nc2ccc(CN3CCN(C)CC3)c(C(F)(F)F)c2)cc1C#Cc1cnc2cccnn12 [Ponatinib] + Nc1ncn([C@H]2C[C@H](O)[C@@H](CO)O2)c(=O)n1 [Decitabine] (partner 2 µM)
In short: as §1

Cell Line	relative viability (Ponatinib + Pictilisib; first compound 0.002 µM)	relative viability (Ponatinib + Pictilisib; first compound 0.006325 µM)	relative viability (Ponatinib + Pictilisib; first compound 0.06325 µM)	relative viability (Ponatinib + Pictilisib; first compound 0.2 µM)	relative viability (Pazopanib + AZD7762; first compound 0.03162 µM)	relative viability (Pazopanib + AZD7762; first compound 0.1 µM)	relative viability (Pazopanib + AZD7762; first compound 0.3162 µM)	relative viability (Pazopanib + AZD7762; first compound 1 µM)	relative viability (Pazopanib + Trametinib; first compound 0.03162 µM)	relative viability (Pazopanib + Trametinib; first compound 0.1 µM)	relative viability (Pazopanib + Trametinib; first compound 0.3162 µM)	relative viability (Pazopanib + Trametinib; first compound 1 µM)	relative viability (Ponatinib + Decitabine; first compound 0.002 µM)	relative viability (Ponatinib + Decitabine; first compound 0.006325 µM)	relative viability (Ponatinib + Decitabine; first compound 0.06325 µM)	relative viability (Ponatinib + Decitabine; first compound 0.2 µM)	relative viability (Pazopanib + AZD7762; first compound 0.01 µM)	relative viability (Pazopanib + Trametinib; first compound 0.01 µM)
HCC-78	0.203	0.216	0.214	0.232	0.654	0.615	0.658	0.604	0.864	0.721	0.804	1.06	0.653	0.757	0.668	0.577		
HCC-366	0.149	0.101	0.146	0.275	0.202	0.314	0.276	0.238	0.328	0.346	0.365	0.413	0.336	0.317	0.387	0.37	0.321	0.319
HCC-827	0.952	1.13	0.899	0.854	0.201	0.217	0.231	0.213	0.551	0.546	0.547	0.559	0.327	0.385	0.338	0.326	0.244	0.558
HOP-62	0.878	0.609	0.75	0.665	0.589	0.527	0.528	0.478	0.371	0.421	0.427	0.5	0.213	0.168	0.21	0.183	0.739	0.378
IA-LM	0.428	0.386	0.572	0.442														
NCI-H520	0.253	0.248	0.259	0.249					0.78	0.644	0.751	0.6	0.426	0.483	0.45	0.411		0.606
NCI-H522					0.667	1.09	1.03	0.857	0.771	0.735	0.786	0.811	0.615	0.64	0.615	0.609	0.679	0.727
NCI-H661	0.404	0.406	0.389	0.482					0.589	0.621	0.614	0.534	0.524	0.537	0.562	0.515		0.518
NCI-H1299	0.894	0.874	0.988	0.658														
NCI-H1563	0.546	0.601	0.586	0.599														
NCI-H1648						0.668	0.711	0.796		0.452	0.454	0.427	0.464	0.615	0.429	0.358		
NCI-H1650	0.601	0.722	0.642	0.558					0.682	0.734	0.629	0.695	0.328	0.653	0.449	0.324		0.725
NCI-H1703	0.278	0.228	0.223	0.205	0.12	0.16	0.14	0.125										
NCI-H2009	0.755	0.838	0.794	0.625					0.25	0.175	0.315	0.332	0.399	0.343	0.354	0.372		0.277
NCI-H2023	0.261	0.292	0.298	0.212					0.619	0.615	0.574	0.491	0.24	0.196	0.244	0.21		0.555
NCI-H2228	0.606	0.698	0.401	0.319					0.501	0.425	0.32	0.759						0.353
NCI-H2342					0.484	0.562	0.521	0.474	0.918	0.821	0.754	0.674	0.74	0.703	0.837	0.77	0.455	0.778
SK-LU-1	0.518	0.63	0.523	0.377					0.499	0.516	0.54	0.54	0.562	0.569	0.639	0.555		0.42
SK-MES-1	0.392	0.409	0.569	0.48					0.555	0.621	0.725	0.628	0.392	0.334	0.419	0.372		0.537
SW 900					0.566		0.635	0.605	0.837		0.974	1.03	0.447	0.43	0.518	0.481	0.462	1.03
SW 1573	0.489	0.515	0.526	0.566					0.671	0.604	0.649	0.494	0.463	0.458	0.695	0.46		0.604
